pEC50, pIC50: −log10 of the molar value. Activity calls are given as the source filed them. No cut-off for these calls is given here.
Assays:
[1] = system: HT-22; assay: Neuroprotective activity against glutamate-induced mouse HT22 cells assessed as increase in cell survival at 25 to 50 uM cotreated with glutamate measured after 24 hrs by MTT assay; format: functional, cell-based
[2] = Antioxidant activity assessed as reduction of Fe3+-TPTZ to Fe2+-TPTZ measured every 15 secs for 4 mins by FRAP assay; format: functional
[3] = system: HT-22; assay: Neurotoxicity against mouse HT22 cells assessed as decrease in cell viability at 25 uM using 1:1 test compound to silibinin ratio measured after 24 hrs by MTT assay; format: toxicity, cell-based; conditions: ht-22, 24 h
[4] = system: HT-22; assay: Neurotoxicity against mouse HT22 cells assessed as decrease in cell viability at 25 uM measured after 24 hrs by MTT assay; format: toxicity, cell-based; conditions: ht-22, 24 h
[5] = system: HT-22; assay: Neuroprotective activity against glutamate-induced mouse HT22 cells assessed as increase in cell survival at 1 to 25 uM cotreated with glutamate measured after 24 hrs by MTT assay; format: functional, cell-based
[6] = system: HT-22; assay: Neuroprotective activity against IAA-induced ischemia in mouse HT22 cells assessed as increase in cell viability cotreated with IAA for 2 hrs followed by IAA wash out measured after 24 hrs by MTT assay; format: functional, cell-based
[7] = system: BV-2; assay: Antiinflammatory activity in mouse BV2 cells assessed as inhibition of LPS-induced microglial activation after 24 hrs by Griess reagent based assay; format: functional, cell-based; conditions: BV-2, 24 h
[8] = system: HT-22; assay: Neuroprotective activity against glutamate-induced mouse HT22 cells assessed as increase in cell survival at 1 to 25 uM using 1:1 test compound to silibinin ratio cotreated with glutamate measured after 24 hrs by MTT assay; format: functional, cell-based
[9] = Antioxidant activity assessed as reduction of Fe3+-TPTZ to Fe2+-TPTZ using 1:1 test compound to silibinin ratio measured every 15 secs for 4 mins by FRAP assay; format: functional
[10] = system: PC-12; assay: Induction of rat PC12 cells differentiation assessed as neurite outgrowth at 10 uM after 24 hrs relative to control; format: functional
[11] = system: HT-22; assay: Neuroprotective activity against glutamate-induced mouse HT22 cells assessed as cell survival at 25 uM cotreated with glutamate measured after 24 hrs by MTT assay relative to control; format: functional
[12] = system: HT-22; assay: Neuroprotective activity against glutamate-induced mouse HT22 cells assessed as increase in cell survival at 25 uM cotreated with glutamate measured after 24 hrs by MTT assay; format: functional, cell-based
[13] = Drug metabolism in human pooled plasma assessed as cleavage of ester bond at 50 uM up to 24 hrs by LCMS analysis; format: ADME, cell-free
[14] = Half life in human pooled plasma at 50 uM up to 24 hrs by LCMS analysis; format: ADME, cell-free
[15] = Metabolic stability of the compound in human pooled plasma assessed as compound remaining at 50 uM after 4 hrs by LCMS analysis; format: ADME, cell-free; conditions: read-out: Stability
[16] = target: T1, Amyloid-beta precursor protein (Homo sapiens, UniProt P05067); assay: Inhibition of amyloid beta 42 (unknown origin) expressed in Escherichia coli BL21 (DE3) aggregation at 10 uM incubated for overnight by Th-S fluorescence staining based UV-Vis spectrophotometer (reference value: 0 +/- 1%)
[17] = target: T1, Amyloid-beta precursor protein; assay: Inhibition of amyloid beta 42 (unknown origin) expressed in Escherichia coli BL21 (DE3) aggregation at 100 uM incubated for overnight by Th-S fluorescence staining based UV-Vis spectrophotometer (reference value: 0 +/- 4.4%)
[18] = target: T2, Microtubule-associated protein tau (Homo sapiens, UniProt P10636); assay: Inhibition of tau (unknown origin) aggregation expressed in Escherichia coli (DE3) at 100 uM incubated for overnight by Th-S fluorescence staining based UV-Vis spectrophotometer (reference value: 0.0 +/- 2.4%)
[19] = system: HT-22; assay: Neuroprotective activity against glutamate-induced mouse HT22 cells assessed as cell survival at 10 to 25 uM cotreated with glutamate measured after 24 hrs by MTT assay relative to control; format: functional
[20] = Metabolic stability of the compound in human pooled plasma at 50 uM by LCMS analysis; format: ADME, cell-free; conditions: TDE = time-dependent effect
[21] = Drug metabolism in human pooled plasma assessed as 7-Oferuloyl-2,3-dehydrosilibinin formation at 50 uM up to 24 hrs by LCMS analysis; format: ADME, cell-free
[22] = target: T2, Microtubule-associated protein tau; assay: Inhibition of tau (unknown origin) aggregation expressed in Escherichia coli (DE3) at 10 uM incubated for overnight by Th-S fluorescence staining based UV-Vis spectrophotometer (reference value: 0.0 +/- 1.4%)
[23] = Stability of the compound in assay medium at 50 uM after 24 hrs by LCMS analysis; format: physicochemical; conditions: read-out: Stability
[24] = Stability of the compound in assay medium at 50 uM by LCMS analysis; format: physicochemical; conditions: TDE = time-dependent effect
[25] = system: HT-22; assay: Neuroprotective activity against glutamate-induced mouse HT22 cells assessed as increase in cell survival at 5 to 25 uM cotreated with glutamate measured after 24 hrs by MTT assay; format: functional, cell-based
[26] = system: HT-22; assay: Neuroprotective activity against glutamate-induced mouse HT22 cells assessed as increase in cell survival at 10 uM cotreated with glutamate measured after 24 hrs by MTT assay; format: functional, cell-based
[27] = system: HT-22; assay: Neurotoxicity against mouse HT22 cells assessed as decrease in cell viability at 10 uM measured after 24 hrs by MTT assay; format: toxicity, cell-based; conditions: ht-22, 24 h
[28] = target: T2, Microtubule-associated protein tau; assay: Inhibition of tau (unknown origin) aggregation expressed in Escherichia coli (DE3) incubated for overnight by Th-S fluorescence staining based UV-Vis spectrophotometer
[29] = target: T1, Amyloid-beta precursor protein; assay: Inhibition of amyloid beta 42 (unknown origin) expressed in Escherichia coli BL21 (DE3) aggregation incubated for overnight by Th-S fluorescence staining based UV-Vis spectrophotometer
[30] = Antioxidant activity assessed as reduction of Fe3+-TPTZ to Fe2+-TPTZ using equimolar mixture of test compound and silibinin measured every 15 secs for 4 mins by FRAP assay; format: functional
[31] = Antioxidant activity assessed as ferric ion reduction by measuring FeSO4 equivalents reducing Fe3+-TPTZ to Fe2+-TPTZ measured every 15 secs for 4 mins by FRAP assay; format: functional
[32] = system: HT-22; assay: Neurotoxicity against mouse HT22 cells assessed as decrease in cell viability at 25 uM using 1:1 test compound to cinnamic acid ratio measured after 24 hrs by MTT assay; format: toxicity, cell-based; conditions: ht-22, 24 h
[33] = Antioxidant activity assessed as reduction of Fe3+-TPTZ to Fe2+-TPTZ using equimolar mixture of test compound and cinnamic acid measured every 15 secs for 4 mins by FRAP assay; format: functional
[34] = system: HT-22; assay: Neurotoxicity against mouse HT22 cells assessed as decrease in cell viability at 25 uM using 1:1 test compound to ferulic acid ratio measured after 24 hrs by MTT assay; format: toxicity, cell-based; conditions: ht-22, 24 h
[35] = system: HT-22; assay: Neuroprotective activity against glutamate-induced mouse HT22 cells assessed as increase in cell survival at 1 to 25 uM using 1:1 test compound to ferulic acid ratio cotreated with glutamate measured after 24 hrs by MTT assay; format: functional, cell-based
[36] = Antioxidant activity assessed as reduction of Fe3+-TPTZ to Fe2+-TPTZ using 1:1 test compound to ferulic acid ratio measured every 15 secs for 4 mins by FRAP assay; format: functional

T1 sequence (P05067 whole entry): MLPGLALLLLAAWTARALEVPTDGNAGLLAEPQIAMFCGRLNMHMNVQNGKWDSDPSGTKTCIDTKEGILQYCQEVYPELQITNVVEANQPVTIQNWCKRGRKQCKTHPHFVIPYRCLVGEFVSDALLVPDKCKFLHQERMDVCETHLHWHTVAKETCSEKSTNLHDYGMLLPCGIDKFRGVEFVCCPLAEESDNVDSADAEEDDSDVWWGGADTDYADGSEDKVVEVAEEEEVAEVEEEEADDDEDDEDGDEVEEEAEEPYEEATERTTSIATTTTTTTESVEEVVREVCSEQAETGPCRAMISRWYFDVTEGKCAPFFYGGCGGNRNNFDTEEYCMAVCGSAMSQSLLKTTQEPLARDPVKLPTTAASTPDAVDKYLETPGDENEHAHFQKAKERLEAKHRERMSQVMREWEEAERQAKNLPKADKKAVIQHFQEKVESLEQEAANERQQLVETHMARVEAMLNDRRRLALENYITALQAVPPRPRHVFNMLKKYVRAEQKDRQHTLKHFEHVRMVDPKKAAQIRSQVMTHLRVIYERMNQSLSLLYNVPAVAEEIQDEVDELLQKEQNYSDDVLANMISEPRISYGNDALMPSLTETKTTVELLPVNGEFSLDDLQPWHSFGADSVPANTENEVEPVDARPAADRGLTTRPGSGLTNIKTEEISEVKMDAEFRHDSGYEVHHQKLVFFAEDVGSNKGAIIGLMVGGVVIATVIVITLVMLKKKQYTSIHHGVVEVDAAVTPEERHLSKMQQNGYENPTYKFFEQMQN
T2 sequence (P10636 whole entry): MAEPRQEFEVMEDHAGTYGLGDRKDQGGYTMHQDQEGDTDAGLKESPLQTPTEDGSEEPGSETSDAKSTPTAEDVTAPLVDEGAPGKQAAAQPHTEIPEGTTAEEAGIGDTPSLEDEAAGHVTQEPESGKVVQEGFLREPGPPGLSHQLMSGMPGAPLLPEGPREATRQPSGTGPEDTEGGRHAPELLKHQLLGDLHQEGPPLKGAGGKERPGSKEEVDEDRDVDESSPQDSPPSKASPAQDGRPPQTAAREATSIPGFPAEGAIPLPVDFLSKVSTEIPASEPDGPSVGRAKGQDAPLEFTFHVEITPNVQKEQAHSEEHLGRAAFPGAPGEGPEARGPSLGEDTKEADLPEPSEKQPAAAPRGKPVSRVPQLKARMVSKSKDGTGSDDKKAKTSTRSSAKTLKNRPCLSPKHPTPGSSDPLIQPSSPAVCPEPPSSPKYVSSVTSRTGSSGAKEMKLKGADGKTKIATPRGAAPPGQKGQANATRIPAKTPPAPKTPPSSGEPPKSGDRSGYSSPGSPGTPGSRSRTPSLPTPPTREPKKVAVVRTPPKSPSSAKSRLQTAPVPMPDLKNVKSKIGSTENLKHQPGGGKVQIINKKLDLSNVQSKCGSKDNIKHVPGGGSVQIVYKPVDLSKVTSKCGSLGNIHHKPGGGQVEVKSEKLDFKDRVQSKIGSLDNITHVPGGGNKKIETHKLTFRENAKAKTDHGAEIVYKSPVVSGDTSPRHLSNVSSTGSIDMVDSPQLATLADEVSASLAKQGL

Compound: COc1cc(C2Oc3cc([C@H]4Oc5cc(OC(=O)CCc6cc(OC)c(O)c(OC)c6)cc(O)c5C(=O)[C@@H]4O)ccc3OC2CO)ccc1O (stereo partly specified)
- Activity [1]: inactive
- Activity [2]: Active

Compound: COc1cc(/C=C/C(=O)O)ccc1O [FERULATE]
- Activity [3]: Toxic
- Activity [4]: Non-Toxic
- Activity [2]: Active
- Activity [5]: inactive
- pEC50 [6]: < 5.00
- pEC50 [7]: < 5.00
- Activity [8]: inactive
- Activity [9]: Active
- Activity [10]: inactive

Compound: O=c1c(O)c(-c2ccc(O)c(O)c2)oc2cc(O)cc(O)c12 [QUERCETIN]
- Survival [11]: 80%

Compound: COc1cc(C2Oc3cc([C@H]4Oc5cc(OC(=O)CCc6ccc7c(c6)OC(C)(C)O7)cc(O)c5C(=O)[C@@H]4O)ccc3OC2CO)ccc1O (stereo partly specified)
- Activity [1]: inactive
- Activity [2]: inactive

Compound: COc1cc(C(=O)Oc2cc(O)c3c(c2)O[C@H](c2ccc4c(c2)OC(c2ccc(O)c(OC)c2)C(CO)O4)[C@@H](O)C3=O)ccc1O (stereo partly specified)
- Activity [2]: Active
- Activity [12]: Active

Compound: COc1cc(C2Oc3cc([C@H]4Oc5cc(OC(=O)CCc6ccccc6)cc(O)c5C(=O)[C@@H]4O)ccc3OC2CO)ccc1O (stereo partly specified)
- Activity [1]: inactive
- Activity [2]: inactive

Compound: COc1cc(/C=C/C(=O)Oc2cc(O)c3c(c2)O[C@H](c2ccc4c(c2)OC(c2ccc(O)c(OC)c2)C(CO)O4)[C@@H](O)C3=O)ccc1O (stereo partly specified)
- Drug metabolism [13]: Metabolite_Detected
- half-life at 50 µM [14]: 1.5 h
- Activity [4]: Toxic
- remaining at 4 h, 50 µM [15]: 20%
- Activity [2]: Active
- inhibition [16]: 16.8%
- inhibition [17]: 54.4%
- inhibition [18]: 64.7%
- Survival [19]: 50%
- Stability [20]: Tde
- pEC50 [6]: < 5.00
- pEC50 [7]: 5.19
- Drug metabolism [21]: Metabolite_Notdetected
- inhibition [22]: 30.4%
- remaining at 24 h, 50 µM [23]: 25%
- Stability [24]: Tde
- Activity [10]: 47%

Compound: COc1cc(C2Oc3cc([C@H]4Oc5cc(OC(=O)/C=C/c6ccccc6)cc(O)c5C(=O)[C@@H]4O)ccc3OC2CO)ccc1O (stereo partly specified)
- Activity [25]: Active
- Activity [1]: Active
- Activity [4]: Non-Toxic
- Activity [2]: inactive
- inhibition [16]: 17.1%
- inhibition [17]: 61.1%
- inhibition [18]: 76.1%
- Activity [12]: inactive
- Activity [26]: Active
- pEC50 [6]: 5.82
- pEC50 [7]: 5.38
- inhibition [22]: 37.1%
- Activity [10]: 40%

Compound: COc1cc(C2Oc3cc([C@H]4Oc5cc(OC(=O)c6cc(OC)c(O)c(OC)c6)cc(O)c5C(=O)[C@@H]4O)ccc3OC2CO)ccc1O (stereo partly specified)
- Activity [2]: Active
- Activity [12]: Active

Compound: COc1cc(C2Oc3cc([C@H]4Oc5cc(OC(=O)c6ccccc6)cc(O)c5C(=O)[C@@H]4O)ccc3OC2CO)ccc1O (stereo partly specified)
- Activity [2]: inactive
- Activity [12]: inactive

Compound: COc1cc(C2Oc3cc([C@H]4Oc5cc(OC(=O)/C=C/c6ccc7c(c6)OC(C)(C)O7)cc(O)c5C(=O)[C@@H]4O)ccc3OC2CO)ccc1O (stereo partly specified)
- Activity [1]: Active
- Activity [2]: inactive
- Activity [12]: inactive
- Activity [26]: Active

Compound: COc1cc(CCC(=O)Oc2cc(O)c3c(c2)O[C@H](c2ccc4c(c2)OC(c2ccc(O)c(OC)c2)C(CO)O4)[C@@H](O)C3=O)ccc1O (stereo partly specified)
- Activity [1]: inactive
- Activity [2]: Active

Compound: COc1cc(/C=C/C(=O)Oc2cc(O)c3c(c2)O[C@H](c2ccc4c(c2)O[C@H](c2ccc(O)c(OC)c2)[C@@H](CO)O4)[C@@H](O)C3=O)ccc1O
- Activity [27]: Toxic
- Activity [2]: Active
- inhibition [16]: 13.2%
- inhibition [17]: 52.7%
- inhibition [18]: 67.2%
- pIC50 [28]: 4.57
- pEC50 [6]: 5.85
- pEC50 [7]: 5.01
- inhibition [22]: 36.8%
- pIC50 [29]: 4.07
- Activity [10]: 50%

Compound: COc1cc(C2Oc3cc([C@H]4Oc5cc(OC(=O)/C=C/c6cc(OC)c(O)c(OC)c6)cc(O)c5C(=O)[C@@H]4O)ccc3OC2CO)ccc1O (stereo partly specified)
- Activity [1]: Active
- Activity [2]: Active

Compound: O=C(O)/C=C/c1ccccc1 [CINNAMIC ACID]
- Activity [3]: Toxic
- Activity [2]: inactive
- pEC50 [6]: < 5.00
- Activity [30]: Active
- pEC50 [7]: < 5.00
- Activity [10]: inactive

Compound: Cc1c(C)c2c(c(C)c1O)CCC(C)(C(=O)O)O2 (stereo unspecified)
- Activity [31]: 1.8 equiv

Compound: O=C1O[C@H]([C@@H](O)CO)C(O)=C1O
- Activity [31]: 2 equiv

Compound: COc1cc(C2Oc3cc([C@H]4Oc5cc(OC(=O)c6ccc7c(c6)OC(C)(C)O7)cc(O)c5C(=O)[C@@H]4O)ccc3OC2CO)ccc1O (stereo partly specified)
- Activity [2]: inactive
- Activity [12]: inactive
- Activity [26]: Active

Compound: COc1cc(C2Oc3cc([C@H]4Oc5cc(O)cc(O)c5C(=O)[C@@H]4O)ccc3OC2COC(=O)/C=C/c2ccccc2)ccc1O (stereo partly specified)
- Activity [12]: Active
- Activity [26]: inactive

Compound: COc1cc(/C=C/C(=O)Oc2cc(O)c3c(c2)O[C@H](c2ccc4c(c2)O[C@@H](c2ccc(O)c(OC)c2)[C@H](CO)O4)[C@@H](O)C3=O)ccc1O
- Activity [27]: Toxic
- Activity [2]: Active
- inhibition [16]: 14.2%
- inhibition [17]: 73%
- inhibition [18]: 84%
- Activity [26]: Active
- pIC50 [28]: 4.89
- pEC50 [6]: 5.66
- pEC50 [7]: 5.00
- inhibition [22]: 44.5%
- pIC50 [29]: 4.36
- Activity [10]: 67%

Compound: COc1cc(C2Oc3cc([C@H]4Oc5cc(O)cc(O)c5C(=O)[C@@H]4O)ccc3OC2CO)ccc1O (stereo partly specified) [SILIBININ]
- Activity [32]: Toxic
- Activity [33]: Active
- Activity [34]: Toxic
- Activity [4]: Non-Toxic
- inhibition [16]: 4.8%
- inhibition [17]: 16%
- inhibition [18]: 10.1%
- Activity [35]: inactive
- Activity [5]: inactive
- Activity [31]: 0.6 equiv
- pEC50 [6]: < 5.00
- pEC50 [7]: < 5.00
- inhibition [22]: 2%
- Activity [10]: 38%
- Activity [36]: Active
